This is an account of results in the Kinase Knowledgebase extract (Sharma et al. 2016).

SMILES strings stand for the structures. Bounds are passed on as bounds.

Chain of PIK3CA (human) (P42336 whole entry, looked up): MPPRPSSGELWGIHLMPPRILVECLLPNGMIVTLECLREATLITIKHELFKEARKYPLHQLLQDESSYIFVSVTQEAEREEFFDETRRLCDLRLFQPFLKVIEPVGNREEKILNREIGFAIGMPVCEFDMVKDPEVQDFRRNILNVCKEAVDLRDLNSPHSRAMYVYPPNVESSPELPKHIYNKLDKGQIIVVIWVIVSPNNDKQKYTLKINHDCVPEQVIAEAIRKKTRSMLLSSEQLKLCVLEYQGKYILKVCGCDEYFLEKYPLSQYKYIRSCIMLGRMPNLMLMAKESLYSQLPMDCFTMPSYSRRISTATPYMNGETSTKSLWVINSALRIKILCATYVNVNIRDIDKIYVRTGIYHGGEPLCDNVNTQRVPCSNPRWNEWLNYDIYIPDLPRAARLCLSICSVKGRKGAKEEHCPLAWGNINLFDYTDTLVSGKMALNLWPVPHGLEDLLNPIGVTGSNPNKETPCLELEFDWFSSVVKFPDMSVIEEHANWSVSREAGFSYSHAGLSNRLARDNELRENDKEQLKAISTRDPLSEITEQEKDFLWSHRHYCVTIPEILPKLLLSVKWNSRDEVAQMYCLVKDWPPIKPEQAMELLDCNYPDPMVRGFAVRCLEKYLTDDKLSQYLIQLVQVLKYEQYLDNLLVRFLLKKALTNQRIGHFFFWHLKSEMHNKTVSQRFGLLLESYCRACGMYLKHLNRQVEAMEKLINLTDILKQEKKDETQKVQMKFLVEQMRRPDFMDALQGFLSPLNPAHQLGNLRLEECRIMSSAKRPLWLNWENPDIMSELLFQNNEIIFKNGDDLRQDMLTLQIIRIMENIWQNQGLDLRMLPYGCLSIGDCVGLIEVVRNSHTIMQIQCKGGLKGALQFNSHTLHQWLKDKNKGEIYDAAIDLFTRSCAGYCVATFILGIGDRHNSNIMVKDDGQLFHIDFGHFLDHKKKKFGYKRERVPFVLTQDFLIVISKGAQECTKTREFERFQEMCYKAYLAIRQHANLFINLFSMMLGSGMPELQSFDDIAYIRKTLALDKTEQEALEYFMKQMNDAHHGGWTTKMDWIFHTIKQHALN

For one assay, the target named is CDK2 (human) (UniProt P24941). As to the kind of experiment: Enzyme Assay. Particulars: concentration not given here.
Take `O=S(=O)(c1cccc2cnccc12)N1CCCNCC1`: the inhibition (usually the drop in the measured response relative to a control, in per cent) was determined as 18%.

For a further assay, the target named is MAPK14 (human) (UniProt Q16539). As to the kind of experiment: Inhibition of MAPK14 Kinase Activity.
Chain of MAPK14 (human) (Q16539 whole entry, looked up): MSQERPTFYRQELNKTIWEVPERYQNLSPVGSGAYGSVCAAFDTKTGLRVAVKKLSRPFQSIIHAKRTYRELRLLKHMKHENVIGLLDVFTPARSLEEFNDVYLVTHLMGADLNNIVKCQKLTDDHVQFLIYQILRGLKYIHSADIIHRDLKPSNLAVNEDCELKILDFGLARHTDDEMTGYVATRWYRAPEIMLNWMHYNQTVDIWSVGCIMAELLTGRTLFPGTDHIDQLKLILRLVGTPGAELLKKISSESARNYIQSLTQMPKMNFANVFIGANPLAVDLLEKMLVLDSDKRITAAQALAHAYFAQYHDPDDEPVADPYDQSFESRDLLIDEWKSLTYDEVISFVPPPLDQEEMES
Details: not given
Turning to `CS(=O)(=O)N1CCC(Nc2ncc3cc(Oc4ccc(F)cc4F)ncc3n2)CC1`, the IC50 (usually the concentration that gives 50% inhibition) is less than 0.05 µM. Same read-out and setting: to `CC(C)Nc1ncc2cc(Oc3ccc(F)cc3F)ncc2n1` belongs less than 0.5 µM.

A further assay concerns the target PIK3CA (human) (UniProt P42336). Kind of assay: Inhibition of PIK3CA Kinase Activity.
Details: not given
For `NCc1cccc(C(=O)Nc2cccc(-c3nc(-c4cccc(CO)c4)cc(N4CCOCC4)n3)c2)c1`, the concentration for half-maximal inhibition (IC50) amounted to 1 µM. This lies in the single-digit micromolar range.

For `NC(=O)C1CCN(c2cccc(-c3nc(-c4cccc(O)c4)cc(N4CCOCC4)n3)c2)CC1`, the IC50 stood at 1 µM. Still for that read-out and setting: to `COc1ccc2c(c1)c(C=C1Oc3cc(O)cc(O)c3C1=O)c(C)n2CCCN1CCN(CCO)CC1` belongs 0.007 µM; to `C[C@]12C(=C(O)C(=O)c3c1ccc1c3CCC1=O)/C(=C/NCC(=O)O)C(=O)C[C@H]2OC(=O)CCC(=O)O`, 0.044 µM; to `Cc1ccc([N+](=O)[O-])cc1S(=O)(=O)n1ccc(-c2c(C)nc3ccc(Br)cn23)n1`, 0.003 µM. Still for that read-out and setting: to `COc1ccc(-c2c[nH]c3ncc(-c4cncc(NS(=O)(=O)c5ccccc5)c4)cc23)cc1OC` belongs 1.6 µM; to `CC(C)(C)CNc1ncccc1CNc1cccc(Oc2cc(=O)[nH]c3ccccc23)c1`, 10 µM; to `CN[C@H](C)c1ccc(S(=O)(=O)Nc2cc(-c3ccc4nc(NC(C)=O)cn4n3)cnc2Cl)cc1`, 0.006 µM.

As for `N#Cc1cccc(-c2c[nH]c3ncc(-c4cnc(N)c(S(=O)(=O)N5CCOCC5)c4)cc23)c1`, the IC50 was determined as 0.13 µM.

Molecule `COC[C@H]1OC(=O)c2coc3c2[C@@]1(C)C1=C(C3=O)[C@@H]2CC[C@H](C(=O)OCN(C)c3ccc([N+](=O)[O-])c4nonc34)[C@@]2(C)C[C@H]1OC(C)=O` gave an IC50 of 0.225 µM. This IC50 is about 1.7-fold higher than that of the molecule before. Turning to `COC[C@H]1OC(=O)c2coc3c2[C@@]1(C)C1=C(C3=O)[C@@H]2CCC(=O)[C@@]2(C)C[C@H]1C(=O)OCN(C)c1ccc([N+](=O)[O-])c2nonc12`, the IC50 is 0.0007 µM. `CS(=O)(=O)Nc1cccc(-c2nn3c(-c4cnc(N)c(C(F)(F)F)c4)cnc3s2)c1` registered an IC50 of 0.028 µM. Regarding `CC(=O)c1c[nH]c2ncc(-c3cnc(N)c(S(=O)(=O)N4CCOCC4)c3)cc12`, the IC50 is 0.73 µM.

Molecule `CNC(=O)Nc1ccc(-c2nc(N3CC4CCC(C3)O4)c3cnn([C@H]4CC[C@@H](OC)CC4)c3n2)cc1` returned a half-inhibitory concentration (IC50) of 0.705 µM. The IC50 values of the last two molecules are within 1.5-fold of each other. On the same count and under the same terms, to `COc1ncc2cc1NS(=O)(=O)c1ccc(F)c(c1)C(=O)NCc1cncc(c1)-c1ccnc3c1SC2=C3` belongs 0.015 µM.

Consider `c1cc(-c2nc(N3CCOCC3)c3sccc3n2)c2cn[nH]c2c1`, for which the IC50 was determined as 0.04 µM. Still for that read-out and setting: to `c1ccc(CN2CCC(n3ncc4c(N5CCOCC5)nc(-c5cc6ccccc6[nH]5)nc43)CC2)cc1` belongs 1.11 µM; to `COc1ncc2cc1NS(=O)(=O)c1ccc(Cl)c(c1)C(=O)NCC1=CC=C(S1)c1ncnc3c1SC2=C3C`, 0.0001 µM; to `N[C@H]1CCC[C@@H](CC(=O)Nc2cccc(-c3nc(-c4cccc(CO)c4)cc(N4CCOCC4)n3)c2)C1`, 0.7 µM.

`CNC(=O)Nc1ccc(-c2nc(N3CC4CCC(C3)O4)c3cnn([C@H]4CC[C@H](O)CC4)c3n2)cc1`: the half-inhibitory concentration (IC50) is 0.882 µM. Same read-out and setting: to `O=C1C(=Cc2c[nH]c3ccc(Br)cc23)Oc2cc(O)cc(O)c21` belongs 0.422 µM; to `CN(C)c1ccc2c(COC(=O)[C@@H]3CC(=O)c4coc5c4[C@@]3(C)c3ccc4c(c3C5=O)CCC4=O)cc(=O)oc2c1`, 0.0019 µM.

The molecule `O=C1Nc2ccccc2C(=C1)Oc3cccc(NCC4=CN(=CC=C4)[BH2-]C#N)c3` returned a concentration for half-maximal inhibition (IC50) of 7.38 µM. Compared with the last molecule, the IC50 is about 3900-fold higher. Same read-out and setting: to `O=c1cc(Oc2cccc(NCc3cnccc3N3CCOCC3)c2)c2ccccc2[nH]1` belongs 5.62 µM. With `COC[C@H]1OC(=O)c2coc3c2[C@@]1(C)C1=C(C3=O)[C@@H]2CCC(=O)[C@@]2(C)C[C@H]1C(=O)OCc1cc(=O)oc2cc(N(C)C)ccc12`, the concentration for half-maximal inhibition (IC50) was 0.0101 µM. In turn, `CNC(=O)Nc1ccc(-c2nc(N3CC4CCC(C3)O4)c3cnn([C@H]4CC[C@@H](O)CC4)c3n2)cc1` gave a half-inhibitory concentration (IC50) of 0.227 µM. On to `COc1ccc2c(c1)c(C=C1Oc3cc(O)cc(O)c3C1=O)c(C)n2CCCN(C)C`, for which the half-maximal inhibitory concentration (IC50) worked out at 0.005 µM. Regarding `CC(C)(C)OC(=O)n1ccc2cc(CNc3cccc(Oc4cc(=O)[nH]c5ccccc45)c3)ccc21`, the IC50 was found to be 11.8 µM. This IC50 lies about 2400-fold higher than the previous one. `O=C(Nc1ccc(C(=O)NCCN2CCCC2)cc1)Nc1ccc(-c2nc(O[C@H]3CCOC3)nc(N3CCOCC3)n2)cc1` showed an IC50 of 0.0014 µM. Still for that read-out and setting: to `O=c1cc(Oc2cccc(NCc3ccc4[nH]ccc4c3)c2)c2ccccc2[nH]1` belongs 3.42 µM; to `COc1ncc2cc1NS(=O)(=O)c1cccc(c1)C(=O)NCC(=O)NCc1cncc(c1)-c1cnc3sc-2nn13`, 0.1 to 1 µM.

The next assay deals with MAPK14 (human) (UniProt Q16539). As to the kind of experiment: Assessment of MAPK14 Kinase Activity.
Details: not given
For `Cc1ccc(C(=O)NC2CC2)cc1Nc1nc(-c2cccc(C#N)c2)c(C(=O)NCc2ccccc2)s1`, the half-maximal inhibitory concentration (IC50) lay in the range of 0.05 to 0.1 µM.

Take `Clc1ccc(-c2n[nH]c(N3CCc4ccccc4C3)c2-c2ccncc2)cc1`: the half-maximal inhibitory concentration (IC50) turned out to be 0.19 µM.

Molecule `O=C(Nc1ccc(Oc2ccnc(N3CCCC3)n2)c2ccccc12)c1cc(F)cc(N2CCCCC2)c1` yielded a half-inhibitory concentration (IC50) of 0.0419 µM.

For `Cc1nn(-c2ccccc2)c(O)c1C(=O)c1ccccc1`, the 50% inhibitory concentration (IC50) was greater than 100 µM. With `CSc1nc(-c2ccc(F)cc2)c(-c2ccnc(NC(C)C(C)(C)C)c2)[nH]1` (stereo not drawn), the IC50 came out at 0.023 µM. For the molecule `CS(=O)(=O)N1CCC(Nc2ncc3cc(Oc4ccc(F)cc4F)ncc3n2)CC1`, the IC50 is less than 0.05 µM. The molecule `Cc1cccc(-c2nc(Nc3cc(C(=O)NC4CC4)ccc3C)sc2C(=O)NCc2ccccc2)c1` displayed an IC50 of 0.05 to 0.1 µM. Take `[O-][n+]1ccc2c(-c3ccc(F)cc3F)cc(N3CCNCC3)nc2c1-c1c(F)cccc1F`: the concentration for half-maximal inhibition (IC50) turned out to be 0.00063 µM. The same measure, in the same setting: to `Cc1c(NC(=O)c2cc(F)cc(N3CCOCC3)c2)sc(CN2CCOCC2)c1Cl` belongs less than 5 µM. Same read-out and setting: to `CNc1nccc(-c2cccnc2Oc2ccc(Nc3nnc(-c4ccc(F)cc4)c4ccccc34)cc2)n1` belongs 1.7 µM; to `CN(C)C(=O)[C@@H]1CCCN1c1nccc(Oc2ccc(NC(=O)c3cc(F)cc(N4CCCCC4)c3)c3ccccc23)n1`, 0.127 µM. In the case of `CC(C)Nc1ncc2c(n1)N(CC(=O)O)C(=O)N(c1ccccc1Cl)C2`, the concentration for half-maximal inhibition (IC50) is less than 10 µM. `Oc1cc(-c2nc(-c3ccccc3)[nH]c2-c2ccncc2)ccc1Cl` registered a half-inhibitory concentration (IC50) of 0.0001 µM.

In turn, `CONC(=O)c1ccc(C)c(Nc2nnc(-c3ccccc3)[nH]2)c1` displayed an IC50 of less than 0.05 µM.

Consider `Cc1ncccc1-c1nnc2c(F)c(-c3cc(C(=O)NC4CC4)cc(F)c3C)c(F)cn12`, for which the IC50 amounted to 0.081 µM. Still for that read-out and setting: to `Cc1cccc(Nc2c(C(=O)N3CCNCC3)sc3c2ccc(=O)n3-c2c(F)cccc2F)n1` belongs 0.005 to 0.5 µM; to `Cc1ccc(C(=O)NC2CC2)cc1Nc1nc(-c2ccc3[nH]ccc3c2)c(C(=O)NCc2ccccc2)s1`, greater than 0.1 µM; to `Cc1cc(-c2cccc(C(=O)Nc3ccc(OCCN4CCOCC4)c4ccccc34)c2)ccc1F`, 0.487 µM.

In turn, `CSc1nc(-c2ccc(F)cc2)c(-c2ccnc(NC3CCCc4ccccc43)c2)[nH]1` (stereo not drawn) displayed a concentration for half-maximal inhibition (IC50) of 0.05 µM.

`Cc1ccc(C(=O)NC2CC2)cc1Nc1nc(-c2ccccc2)cs1`: the IC50 is greater than 0.1 µM.

Molecule `CC(C)Nc1ncc2c(n1)N(CCS(C)(=O)=O)C(=O)N(c1ccccc1Cl)C2` displayed an IC50 of less than 10 µM. `OC1CCN(c2[nH]nc(-c3ccc(Cl)cc3)c2-c2ccncc2)CC1` registered a concentration for half-maximal inhibition (IC50) of 0.11 µM. `Cc1cccc(Nc2c(C(=O)N3CCC[C@@H]3CO)sc3c2ccc(=O)n3-c2c(F)cccc2F)n1` had a 50% inhibitory concentration (IC50) of 0.015 to 0.03 µM. In the case of `CC(C)Nc1ncc2cc(Oc3ccc(F)cc3F)ncc2n1`, the 50% inhibitory concentration (IC50) was less than 0.5 µM. Still for that read-out and setting: to `Fc1ccc(-c2nc(SCc3ccccc3)[nH]c2-c2ccnc(Cl)c2)cc1` belongs 1.9 µM.

In turn, `CCCCC=Cc1cccc(C(=O)Nc2ccc(OCCN3CCOCC3)c3ccccc23)c1` showed an IC50 greater than 10 µM. In the case of `Cc1c(NC(=O)Nc2cc(C(C)(C)C)nn2-c2ccc(F)cc2)sc(CN2CCOCC2)c1Cl`, the concentration for half-maximal inhibition (IC50) was less than 5 µM. For the molecule `CC1CCN(c2[nH]nc(-c3ccc(Cl)cc3)c2-c2ccncc2)CC1`, the IC50 amounted to 0.13 µM. As for `CON=C(c1ccccc1)c1cnn(-c2ccccc2)c1N`, the IC50 was greater than 100 µM. The molecule `CC(C)Nc1ncc2c(n1)N(CCO)C(=O)N(c1ccccc1Cl)C2` returned an IC50 of less than 10 µM. In turn, `CSc1nc(-c2ccc(F)cc2)c(-c2ccnc(N(C)C)c2)[nH]1` yielded an IC50 of 0.21 µM. The same measure, in the same setting: to `Clc1ccc(-c2n[nH]c(N3CCC4CCCCC4C3)c2-c2ccncc2)cc1` (stereo not drawn) belongs 0.26 µM. `Fc1cc(-c2[nH]c(SCc3ccccc3)nc2-c2cccc(C(F)(F)F)c2)ccn1` gave an IC50 of 2.95 µM. Compared with the last molecule, the IC50 is about 11-fold higher.

On to `COCCN1C(=O)N(c2ccccc2Cl)Cc2cnc(NC(C)C)nc21`, for which the IC50 is less than 10 µM. The molecule `Cc1cccc(Nc2c(C(=O)N3CCC[C@H]3CO)sc3c2ccc(=O)n3-c2c(F)cccc2F)n1` gave an IC50 of 0.005 to 0.5 µM. The molecule `Cc1c(NC(=O)Nc2nnc(C3CCCO3)s2)sc(CN2CCOCC2)c1Cl` (stereo not drawn) showed an IC50 of less than 5 µM. Consider `Cc1c(F)cc(C(=O)NC2CC2)cc1-c1ccn2c(C(C)(C)N)nnc2c1`, for which the IC50 was found to be 0.0154 µM. Turning to `Cc1nc(Nc2c(C(=O)N3CCC[C@@H]3CO)sc3c2ccc(=O)n3-c2c(F)cccc2F)ccc1F`, the IC50 is 0.005 to 0.5 µM.

As to `Cc1ccc(C(=O)NC2CC2)cc1Nc1nc(-c2cccc(CN)c2)c(C(=O)NCc2ccccc2)s1`, the half-inhibitory concentration (IC50) is less than 0.05 µM.

For `Clc1ccc(-c2n[nH]c(N3CCCC4CCCCC43)c2-c2ccncc2)cc1` (stereo not drawn), the IC50 was determined as 0.04 µM.

`O=C1Nc2nc(Nc3ccc(O)cc3)ncc2CN1c1ccccc1Cl`: the Kd (commonly the free concentration of one partner at which half of the binding sites on the other are occupied at equilibrium, for simple one-to-one binding) came out at 0.032 µM.

Consider `Cc1cccc(Nc2c(C(=O)N3CC[C@H](O)C3)sc3c2ccc(=O)n3-c2c(F)cccc2F)n1`, for which the half-maximal inhibitory concentration (IC50) lay in the range of 0.005 to 0.5 µM. For `CSc1nc(-c2ccc(F)cc2)c(-c2ccnc(NC3CCc4ccccc43)c2)[nH]1` (stereo not drawn), the IC50 amounted to 0.03 µM. The same measure, in the same setting: to `CC(C)(N)C(=O)OCCOc1cc(-c2ccccc2Cl)c2ccc(=O)n(-c3c(Cl)cccc3Cl)c2c1` belongs 0.00012 µM; to `CC(Oc1nncc2cc(Nc3ccc(F)cc3)ccc12)C(F)(F)F` (stereo not drawn), 0.0091 µM; to `Cc1cccc(Nc2c(C(=O)N3CC[C@@H](O)C3)sc3c2ccc(=O)n3-c2c(F)cccc2F)n1`, 0.005 to 0.5 µM.

Staying with this assay, now noted: concentration not given here.
Consider `CC1=C(C(=O)Nc2cc3cn[nH]c3cc2F)C(c2ccc(C(F)(F)F)cc2)CC(=O)N1` (stereo not drawn), for which the inhibition was -3%. On to `O=S(=O)(c1cccc2cnccc12)N1CCCNCC1`, for which the inhibition is -8%. Same read-out and setting: to `Cc1cncc2cccc(S(=O)(=O)N3CCCNC[C@@H]3C)c12` belongs -9%.
